Assay results taken from US10781224B2, “Bis(oxymethyl)phosphinic acid and biogenic metal salts thereof as regulators of plant growth and development” (priority 2016, dated 2020).

What was measured:
[1] = test system: corn (Krasnodar 385 MV variety); assay: Corn seed treatment with BHMPA salts: germination energy and germination rate; format: in vivo
Outline: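 Corn, winter wheat and rice seeds (50 per dish, on filter paper) were soaked for 1 h in BHMPA or its metal salts at 1·10^−6-1·10^−12%, with water as control. Germination energy was read on day 4 and germination rate on day 8 for wheat and day 7 for rice and corn, following GOST 12038-84, as the mean of four replicates.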

rice (Diamant variety) = assay: Rice seed treatment with BHMPA salts: germinating power; format: in vivo
Outline: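 Seeds (50 per Petri dish on two layers of filter paper) soaked 1 h in BHMPA or its Ca, Mg, Na, Co, Mn, Cu or Zn salts at 1·10^−6-1·10^−12%, with water controls. Germination energy read on day 4, germination on day 8 (wheat) or day 7 (rice, corn), as % means of four replicates. Germinating power taken as root and sprout length plus wet and dry mass per 100 seedlings.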

[2] = comparative study vs Melaphen, 1·10^−10% solution
[3] = rice seed treatment, comparison with Melaphen (Table XXXIII), solution 1 · 10^−11%
[4] = rice seeds, solution concentration 1 · 10^−6%
[5] = rice seeds, solution concentration 1 · 10^−7%
[6] = rice seeds, solution concentration 1 · 10^−8%
[7] = rice seeds, solution concentration 1 · 10^−9%
[8] = rice seeds, solution concentration 1 · 10^−10%
[9] = rice seeds, solution concentration 1 · 10^−11%
[10] = rice seeds, solution concentration 1 · 10^−12%
[11] = rice, vs control, 1·10^−11% solution

Compound: O=P([O-])(CO)CO.[Na+] [Na-salt, Sodium BHMPA Salt]
- Germination energy ([1]; 1·10^−6% solution): 75.7%
- Germination rate ([1]; 1·10^−6% solution): 78.3%
- Germination energy ([1]; 1·10^−7% solution): 78.0%
- Germination rate ([1]; 1·10^−7% solution): 81.8%
- Germination energy ([1]; 1·10^−8% solution): 84.8%
- Germination rate ([1]; 1·10^−8% solution): 87.5%
- Germination energy ([1]; 1·10^−9% solution): 87.7%
- Germination rate ([1]; 1·10^−9% solution): 91.7%
- Germination energy ([1]; 1·10^−10% solution): 89.7%
- Germination rate ([1]; 1·10^−10% solution): 93.0%
- Germination energy ([1]; 1·10^−11% solution): 86.8%
- Germination rate ([1]; 1·10^−11% solution): 89.5%
- Germination energy ([1]; 1·10^−12% solution): 82.0%
- Germination rate ([1]; 1·10^−12% solution): 85.5%
- Germination energy [1, 2]: 85.7%
- Germination rate [1, 2]: 94.0%
- optimum concentration for treating rice seeds before sowing (rice (Diamant variety); rice): 1·10^−11%
- Length, root (rice (Diamant variety); [3]): 5.9 cm
- Length, root, + % to control (rice (Diamant variety); [3]): 23%
- Length, sprout (rice (Diamant variety); [3]): 3.4 cm
- Length, sprout, + % to control (rice (Diamant variety); [3]): 46%
- Mass, dry, root (rice (Diamant variety); [3]): 0.22 g/100 plantlings
- Mass, dry, root, + % to control (rice (Diamant variety); [3]): 5%
- Mass, dry, sprout (rice (Diamant variety); [3]): 0.26 g/100 plantlings
- Mass, dry, sprout, + % to control (rice (Diamant variety); [3]): 24%
- Mass, wet, root (rice (Diamant variety); [3]): 1.31 g/100 plantlings
- Mass, wet, root, + % to control (rice (Diamant variety); [3]): 34%
- Mass, wet, sprout (rice (Diamant variety); [3]): 2.22 g/100 plantlings
- Mass, wet, sprout, + % to control (rice (Diamant variety); [3]): 47%
- Length, root (rice (Diamant variety); [4]): 5.4 cm
- Length, root, + % to control (rice (Diamant variety); [4]): 4%
- Length, sprout (rice (Diamant variety); [4]): 2.3 cm
- Length, sprout, + % to control (rice (Diamant variety); [4]): 9.5%
- Mass, dry, root (rice (Diamant variety); [4]): 0.21 g/100 plantlings
- Mass, dry, root, + % to control (rice (Diamant variety); [4]): 5%
- Mass, dry, sprout (rice (Diamant variety); [4]): 0.28 g/100 plantlings
- Mass, dry, sprout, + % to control (rice (Diamant variety); [4]): 8%
- Mass, wet, root (rice (Diamant variety); [4]): 1.06 g/100 plantlings
- Mass, wet, root, + % to control (rice (Diamant variety); [4]): 16.5%
- Mass, wet, sprout (rice (Diamant variety); [4]): 1.73 g/100 plantlings
- Mass, wet, sprout, + % to control (rice (Diamant variety); [4]): 5.5%
- Length, root (rice (Diamant variety); [5]): 5.6 cm
- Length, root, + % to control (rice (Diamant variety); [5]): 8%
- Length, sprout (rice (Diamant variety); [5]): 2.4 cm
- Length, sprout, + % to control (rice (Diamant variety); [5]): 14%
- Mass, dry, root (rice (Diamant variety); [5]): 0.22 g/100 plantlings
- Mass, dry, root, + % to control (rice (Diamant variety); [5]): 10%
- Mass, dry, sprout (rice (Diamant variety); [5]): 0.30 g/100 plantlings
- Mass, dry, sprout, + % to control (rice (Diamant variety); [5]): 15%
- Mass, wet, root (rice (Diamant variety); [5]): 1.10 g/100 plantlings
- Mass, wet, root, + % to control (rice (Diamant variety); [5]): 21%
- Mass, wet, sprout (rice (Diamant variety); [5]): 1.81 g/100 plantlings
- Mass, wet, sprout, + % to control (rice (Diamant variety); [5]): 10%
- Length, root (rice (Diamant variety); [6]): 5.8 cm
- Length, root, + % to control (rice (Diamant variety); [6]): 11.5%
- Length, sprout (rice (Diamant variety); [6]): 2.6 cm
- Length, sprout, + % to control (rice (Diamant variety); [6]): 24%
- Mass, dry, root (rice (Diamant variety); [6]): 0.23 g/100 plantlings
- Mass, dry, root, + % to control (rice (Diamant variety); [6]): 15%
- Mass, dry, sprout (rice (Diamant variety); [6]): 0.31 g/100 plantlings
- Mass, dry, sprout, + % to control (rice (Diamant variety); [6]): 19%
- Mass, wet, root (rice (Diamant variety); [6]): 1.14 g/100 plantlings
- Mass, wet, root, + % to control (rice (Diamant variety); [6]): 25%
- Mass, wet, sprout (rice (Diamant variety); [6]): 1.89 g/100 plantlings
- Mass, wet, sprout, + % to control (rice (Diamant variety); [6]): 15%
- Length, root (rice (Diamant variety); [7]): 6.0 cm
- Length, root, + % to control (rice (Diamant variety); [7]): 15%
- Length, sprout (rice (Diamant variety); [7]): 2.8 cm
- Length, sprout, + % to control (rice (Diamant variety); [7]): 33%
- Mass, dry, root (rice (Diamant variety); [7]): 0.25 g/100 plantlings
- Mass, dry, root, + % to control (rice (Diamant variety); [7]): 25%
- Mass, dry, sprout (rice (Diamant variety); [7]): 0.33 g/100 plantlings
- Mass, dry, sprout, + % to control (rice (Diamant variety); [7]): 27%
- Mass, wet, root (rice (Diamant variety); [7]): 1.17 g/100 plantlings
- Mass, wet, root, + % to control (rice (Diamant variety); [7]): 28.5%
- Mass, wet, sprout (rice (Diamant variety); [7]): 2.00 g/100 plantlings
- Mass, wet, sprout, + % to control (rice (Diamant variety); [7]): 22%
- Length, root (rice (Diamant variety); [8]): 6.3 cm
- Length, root, + % to control (rice (Diamant variety); [8]): 21%
- Length, sprout (rice (Diamant variety); [8]): 3.5 cm
- Length, sprout, + % to control (rice (Diamant variety); [8]): 58%
- Mass, dry, root (rice (Diamant variety); [8]): 0.27 g/100 plantlings
- Mass, dry, root, + % to control (rice (Diamant variety); [8]): 35%
- Mass, dry, sprout (rice (Diamant variety); [8]): 0.35 g/100 plantlings
- Mass, dry, sprout, + % to control (rice (Diamant variety); [8]): 35%
- Mass, wet, root (rice (Diamant variety); [8]): 1.26 g/100 plantlings
- Mass, wet, root, + % to control (rice (Diamant variety); [8]): 38%
- Mass, wet, sprout (rice (Diamant variety); [8]): 2.18 g/100 plantlings
- Mass, wet, sprout, + % to control (rice (Diamant variety); [8]): 33%
- Length, root (rice (Diamant variety); [9]): 6.4 cm
- Length, root, + % to control (rice (Diamant variety); [9]): 23%
- Length, sprout (rice (Diamant variety); [9]): 4.0 cm
- Length, sprout, + % to control (rice (Diamant variety); [9]): 90%
- Mass, dry, root (rice (Diamant variety); [9]): 0.30 g/100 plantlings
- Mass, dry, root, + % to control (rice (Diamant variety); [9]): 50%
- Mass, dry, sprout (rice (Diamant variety); [9]): 0.39 g/100 plantlings
- Mass, dry, sprout, + % to control (rice (Diamant variety); [9]): 50%
- Mass, wet, root (rice (Diamant variety); [9]): 1.35 g/100 plantlings
- Mass, wet, root, + % to control (rice (Diamant variety); [9]): 48%
- Mass, wet, sprout (rice (Diamant variety); [9]): 2.30 g/100 plantlings
- Mass, wet, sprout, + % to control (rice (Diamant variety); [9]): 40%
- Length, root (rice (Diamant variety); [10]): 6.2 cm
- Length, root, + % to control (rice (Diamant variety); [10]): 19%
- Length, sprout (rice (Diamant variety); [10]): 3.6 cm
- Length, sprout, + % to control (rice (Diamant variety); [10]): 71%
- Mass, dry, root (rice (Diamant variety); [10]): 0.26 g/100 plantlings
- Mass, dry, root, + % to control (rice (Diamant variety); [10]): 30%
- Mass, dry, sprout (rice (Diamant variety); [10]): 0.33 g/100 plantlings
- Mass, dry, sprout, + % to control (rice (Diamant variety); [10]): 27%
- Mass, wet, root (rice (Diamant variety); [10]): 1.18 g/100 plantlings
- Mass, wet, root, + % to control (rice (Diamant variety); [10]): 30%
- Mass, wet, sprout (rice (Diamant variety); [10]): 2.23 g/100 plantlings
- Mass, wet, sprout, + % to control (rice (Diamant variety); [10]): 36%
- dry mass of the roots increased by (rice (Diamant variety); [11]): 50%
- dry mass of the sprouts increased by (rice (Diamant variety); [11]): 50%
- length of the root increased by (rice (Diamant variety); [11]): 23%
- length of the sprout increased by (rice (Diamant variety); [11]): 90%
- wet mass of the roots increased by (rice (Diamant variety); [11]): 48%
- wet mass of the sprouts increased by (rice (Diamant variety); [11]): 40%
